{"source": "ChEMBL document CHEMBL6127049", "about": "“Discovery of the selective and nanomolar inhibitor of DPP-4 more potent than sitagliptin by structure-guided rational design” (Eur J Med Chem, 2024)", "key": {"[1]": {"target": "Dipeptidyl peptidase 8 (Homo sapiens, UniProt Q6V1X1)", "sequence (Q6V1X1 whole entry)": "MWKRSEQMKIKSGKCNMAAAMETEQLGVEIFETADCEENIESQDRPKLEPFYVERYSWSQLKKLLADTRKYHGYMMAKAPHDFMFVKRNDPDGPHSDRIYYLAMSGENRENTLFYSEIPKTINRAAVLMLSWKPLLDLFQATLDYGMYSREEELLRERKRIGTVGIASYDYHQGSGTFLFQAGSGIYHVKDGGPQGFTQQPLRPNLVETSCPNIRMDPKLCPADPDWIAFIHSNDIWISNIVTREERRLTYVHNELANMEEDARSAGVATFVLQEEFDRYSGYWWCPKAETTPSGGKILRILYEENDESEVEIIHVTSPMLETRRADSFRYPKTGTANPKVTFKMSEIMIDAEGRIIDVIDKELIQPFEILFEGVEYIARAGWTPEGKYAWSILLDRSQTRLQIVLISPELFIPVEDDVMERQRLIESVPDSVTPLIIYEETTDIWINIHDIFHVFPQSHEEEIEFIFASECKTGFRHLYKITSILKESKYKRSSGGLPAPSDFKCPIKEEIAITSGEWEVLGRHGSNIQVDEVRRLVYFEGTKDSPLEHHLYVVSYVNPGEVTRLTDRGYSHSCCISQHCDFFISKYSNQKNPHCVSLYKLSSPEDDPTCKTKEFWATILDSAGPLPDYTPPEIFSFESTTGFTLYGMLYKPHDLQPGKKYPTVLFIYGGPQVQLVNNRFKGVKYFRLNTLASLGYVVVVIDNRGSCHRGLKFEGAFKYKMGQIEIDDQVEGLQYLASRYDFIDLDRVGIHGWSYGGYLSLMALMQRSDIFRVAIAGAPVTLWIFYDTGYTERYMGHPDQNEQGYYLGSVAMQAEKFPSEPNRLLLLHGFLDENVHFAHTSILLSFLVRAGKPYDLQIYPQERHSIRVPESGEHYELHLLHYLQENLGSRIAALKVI", "experiment": "Inhibition of DPP8 (unknown origin) assessed as hydrolysis rate using Gly-pro-p-nitroanilide as substrate measured after 20 mins incubation by […] assay"}, "[2]": {"target": "Dipeptidyl peptidase 9 (Homo sapiens, UniProt Q86TI2)", "sequence (Q86TI2 whole entry)": "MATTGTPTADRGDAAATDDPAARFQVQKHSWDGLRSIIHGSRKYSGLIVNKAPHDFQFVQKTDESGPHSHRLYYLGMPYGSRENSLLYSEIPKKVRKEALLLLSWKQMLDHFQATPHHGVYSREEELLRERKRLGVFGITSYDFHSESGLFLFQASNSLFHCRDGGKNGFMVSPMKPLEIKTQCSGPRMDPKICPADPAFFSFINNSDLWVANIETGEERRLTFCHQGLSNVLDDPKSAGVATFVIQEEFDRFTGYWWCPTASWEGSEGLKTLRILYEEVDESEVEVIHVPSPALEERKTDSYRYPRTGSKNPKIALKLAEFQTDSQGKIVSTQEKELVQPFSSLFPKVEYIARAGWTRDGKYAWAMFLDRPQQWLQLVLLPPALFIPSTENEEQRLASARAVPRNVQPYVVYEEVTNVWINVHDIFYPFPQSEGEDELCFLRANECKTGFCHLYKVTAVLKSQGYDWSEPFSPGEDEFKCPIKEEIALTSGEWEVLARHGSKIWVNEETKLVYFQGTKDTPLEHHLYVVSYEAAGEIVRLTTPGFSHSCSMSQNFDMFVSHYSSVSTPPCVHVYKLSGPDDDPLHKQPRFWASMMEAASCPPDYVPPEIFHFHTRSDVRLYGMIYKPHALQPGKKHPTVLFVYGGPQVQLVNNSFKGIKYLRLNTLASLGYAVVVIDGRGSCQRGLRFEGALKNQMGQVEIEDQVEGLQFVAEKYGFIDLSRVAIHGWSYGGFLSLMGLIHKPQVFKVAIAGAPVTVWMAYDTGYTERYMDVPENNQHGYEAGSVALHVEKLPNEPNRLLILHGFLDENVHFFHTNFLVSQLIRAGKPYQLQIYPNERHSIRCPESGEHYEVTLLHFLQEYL", "experiment": "Inhibition of DPP9 (unknown origin) assessed as hydrolysis rate using Gly-pro-p-nitroanilide as substrate measured after 20 mins incubation by […] assay"}, "[3]": {"experiment": "Acute toxicity in Balb/C mouse assessed as changes in general appearance at 1250 to 2000 mg/kg, po", "format": "organism-based", "conditions": "in vivo, dose 1250-2000 mg/kg"}, "[4]": {"experiment": "Acute toxicity in Balb/C mouse assessed as morphological changes in skin at 1250 to 2000 mg/kg, po", "format": "organism-based", "conditions": "in vivo, dose 1250-2000 mg/kg"}, "[5]": {"experiment": "Acute toxicity in Balb/C mouse assessed as morphological changes in fur at 1250 to 2000 mg/kg, po", "format": "organism-based", "conditions": "in vivo, dose 1250-2000 mg/kg"}, "[6]": {"experiment": "Acute toxicity in Balb/C mouse assessed as morphological changes in eyes at 1250 to 2000 mg/kg, po", "format": "organism-based", "conditions": "in vivo, dose 1250-2000 mg/kg"}, "[7]": {"experiment": "Acute toxicity in Balb/C mouse assessed as morphological changes in convulsions at 1250 to 2000 mg/kg, po", "format": "organism-based", "conditions": "in vivo, dose 1250-2000 mg/kg"}, "[8]": {"experiment": "Acute toxicity in Balb/C mouse assessed as morphological changes in tremors at 1250 to 2000 mg/kg, po", "format": "organism-based", "conditions": "in vivo, dose 1250-2000 mg/kg"}, "[9]": {"experiment": "Acute toxicity in Balb/C mouse assessed as morphological changes in diarrhea at 1250 to 2000 mg/kg, po", "format": "organism-based", "conditions": "in vivo, dose 1250-2000 mg/kg"}, "[10]": {"experiment": "Acute toxicity in Balb/C mouse assessed as morphological changes in salvation at 1250 to 2000 mg/kg, po", "format": "organism-based", "conditions": "in vivo, dose 1250-2000 mg/kg"}, "[11]": {"experiment": "Acute toxicity in Balb/C mouse assessed as morphological changes in unusual behavior at 1250 to 2000 mg/kg, po", "format": "organism-based", "conditions": "in vivo, dose 1250-2000 mg/kg"}, "[12]": {"test_system": "Rattus norvegicus", "experiment": "Anti-diabetic activity in normal Wistar rat model assessed as blood glucose level at 10 mg/kg, po followed by treated administered 3 mg/kg orally measured after 30 mins by Oral glucose tolerance test (reference value: […] 176.14 + /- 4.04 mg/dL)", "format": "functional", "conditions": "0.5 h"}, "[13]": {"test_system": "Rattus norvegicus", "experiment": "Anti-diabetic activity in normal Wistar rat model assessed as blood glucose level at 10 mg/kg, po followed by treated administered 3 mg/kg orally measured after 60 mins by Oral glucose tolerance test (reference value: 153.74 + /- 3.94 mg/dL)", "format": "functional", "conditions": "1 h"}, "[14]": {"test_system": "Rattus norvegicus", "experiment": "Anti-diabetic activity in normal Wistar rat model assessed as blood glucose level at 10 mg/kg, po followed by treated administered 3 mg/kg orally measured after 90 mins by Oral glucose tolerance test (reference value: 134.11 + /- 4.64 mg/dL)", "format": "functional", "conditions": "1.5 h"}, "[15]": {"test_system": "Rattus norvegicus", "experiment": "Anti-diabetic activity in normal Wistar rat model assessed as blood glucose level at 10 mg/kg, po followed by treated administered 3 mg/kg orally measured after 120 mins by Oral glucose tolerance test (reference value: 126.5 + /- 3.90 mg/dL)", "format": "functional", "conditions": "2 h"}, "[16]": {"test_system": "Rattus norvegicus", "experiment": "Anti-diabetic activity in normal Wistar rat model assessed as blood glucose level at 20 mg/kg, po followed by treated administered 3 mg/kg orally measured after 60 mins by Oral glucose tolerance test (reference value: 153.74 + /- 3.94 mg/dL)", "format": "functional", "conditions": "1 h"}, "[17]": {"test_system": "Rattus norvegicus", "experiment": "Anti-diabetic activity in normal Wistar rat model assessed as blood glucose level at 20 mg/kg, po followed by treated administered 3 mg/kg orally measured after 120 mins by Oral glucose tolerance test (reference value: 126.5 + /- 3.90 mg/dL)", "format": "functional", "conditions": "2 h"}, "[18]": {"test_system": "Rattus norvegicus", "experiment": "Anti-diabetic activity in normal Wistar rat model assessed as blood glucose level at 10 mg/kg, po followed by treated administered 3 mg/kg orally measured immediately after administration by Oral glucose tolerance test (reference value: 105.12 mg/dL)", "format": "functional"}, "[19]": {"test_system": "Rattus norvegicus", "experiment": "Anti-diabetic activity in normal Wistar rat model assessed as blood glucose level at 20 mg/kg, po followed by treated administered 3 mg/kg orally measured immediately after administration by Oral glucose tolerance test (reference value: 105.12 mg/dL)", "format": "functional"}, "[20]": {"test_system": "Rattus norvegicus", "experiment": "Anti-diabetic activity in STZ-induced type 2 diabetes male Wistar albino rat model assessed as fasting blood glucose level at 20 mg/kg, po measured on day 7", "format": "functional", "conditions": "time 7 day"}, "[21]": {"test_system": "Rattus norvegicus", "experiment": "Anti-diabetic activity in STZ-induced type 2 diabetes male Wistar albino rat model assessed as fasting blood glucose level at 20 mg/kg, po measured on day 14", "format": "functional", "conditions": "time 14 day"}, "[22]": {"test_system": "Rattus norvegicus", "experiment": "Anti-diabetic activity in STZ-induced type 2 diabetes male Wistar albino rat model assessed as fasting blood glucose level at 20 mg/kg, po measured on day 21", "format": "functional", "conditions": "time 21 day"}, "[23]": {"test_system": "Rattus norvegicus", "experiment": "Anti-diabetic activity in STZ-induced type 2 diabetes male Wistar albino rat model assessed as fasting blood glucose level at 20 mg/kg, po measured on day 28", "format": "functional", "conditions": "time 28 day"}, "[24]": {"test_system": "Rattus norvegicus", "experiment": "Antihyperlipidemic effect in STZ-induced type 2 diabetes male Wistar albino rat model assessed as HDL level at 10 mg/kg, po measured after 4 weeks (reference value: 25.54 +/- 2.62 mg/dL)", "format": "functional"}, "[25]": {"test_system": "Rattus norvegicus", "experiment": "Antihyperlipidemic effect in STZ-induced type 2 diabetes male Wistar albino rat model assessed as LDL level at 10 mg/kg, po measured after 4 weeks (reference value: 184.65 +/- 4.57 mg/dL)", "format": "functional"}, "[26]": {"test_system": "Rattus norvegicus", "experiment": "Antihyperlipidemic effect in STZ-induced type 2 diabetes male Wistar albino rat model assessed as total cholesterol level at 20 mg/kg, po measured after 4 weeks (reference value: 227.04 +/- 4.10 mg/dL)", "format": "functional"}, "[27]": {"test_system": "Rattus norvegicus", "experiment": "Antihyperlipidemic effect in STZ-induced type 2 diabetes male Wistar albino rat model assessed as HDL level at 20 mg/kg, po measured after 4 weeks (reference value: 25.54 +/- 2.62 mg/dL)", "format": "functional"}, "[28]": {"test_system": "Rattus norvegicus", "experiment": "Antihyperlipidemic effect in STZ-induced type 2 diabetes male Wistar albino rat model assessed as triglyceride level at 20 mg/kg, po measured after 4 weeks (reference value: 190.23 +/- 4.37 mg/dL)", "format": "functional"}, "[29]": {"test_system": "Rattus norvegicus", "experiment": "Reduction of alkaline phosphatase (ALP) level in STZ-induced type 2 diabetes male Wistar albino rat model at 10 mg/kg, po measured after 4 weeks by hepatic function test", "format": "functional, organism-based"}, "[30]": {"test_system": "Rattus norvegicus", "experiment": "Reduction of serum glutamate pyruvate transaminase (SGPT) level in STZ-induced type 2 diabetes male Wistar albino rat model at 10 mg/kg, po measured after 4 weeks by hepatic function test", "format": "functional, organism-based"}, "[31]": {"test_system": "Rattus norvegicus", "experiment": "Reduction of serum glutamate oxaloacetate transaminase (SGOT) level in STZ-induced type 2 diabetes male Wistar albino rat model at 10 mg/kg, po measured after 4 weeks by hepatic function test", "format": "functional, organism-based"}, "[32]": {"test_system": "Rattus norvegicus", "experiment": "Reduction of serum glutamate pyruvate transaminase (SGPT) level in STZ-induced type 2 diabetes male Wistar albino rat model at 20 mg/kg, po measured after 4 weeks by hepatic function test", "format": "functional, organism-based"}, "[33]": {"test_system": "Rattus norvegicus", "experiment": "Reduction of serum glutamate oxaloacetate transaminase (SGOT) level in STZ-induced type 2 diabetes male Wistar albino rat model at 20 mg/kg, po measured after 4 weeks by hepatic function test", "format": "functional, organism-based"}, "[34]": {"test_system": "Rattus norvegicus", "experiment": "Reduction of insulin level in STZ-induced type 2 diabetes male Wistar albino rat model at 20 mg/kg, po measured after 4 weeks by hepatic function test", "format": "functional, organism-based"}}, "note": "Calls of active or inactive are those of the source. The calls are words filed in the database; no cut-off is given here.", "data": [{"smiles": "CC1=C([N+](=O)[O-])C(c2ccc(F)c(F)c2)N=C(N)N1C(=O)CN1Cc2cn(S(C)(=O)=O)nc2C1", "note": "(centres undefined)", "values": [{"measurement": "IC50", "setting": "[1]", "value": 2.9, "unit": "µM"}, {"measurement": "IC50", "setting": "[2]", "value": 0.864, "unit": "µM"}, {"measurement": "Activity", "setting": "[3]", "value": "Non-Toxic"}, {"measurement": "Activity", "setting": "[4]", "value": "Non-Toxic"}, {"measurement": "Activity", "setting": "[5]", "value": "Non-Toxic"}, {"measurement": "Activity", "setting": "[6]", "value": "Non-Toxic"}, {"measurement": "Activity", "setting": "[7]", "value": "Non-Toxic"}, {"measurement": "Activity", "setting": "[8]", "value": "Non-Toxic"}, {"measurement": "Activity", "setting": "[9]", "value": "Non-Toxic"}, {"measurement": "Activity", "setting": "[10]", "value": "Non-Toxic"}, {"measurement": "Activity", "setting": "[11]", "value": "Non-Toxic"}, {"measurement": "Activity", "setting": "[12]", "value": 123.04, "unit": "mg/dL"}, {"measurement": "Activity", "setting": "[13]", "value": 118.35, "unit": "mg/dL"}, {"measurement": "Activity", "setting": "[14]", "value": 113.96, "unit": "mg/dL"}, {"measurement": "Activity", "setting": "[15]", "value": 115.78, "unit": "mg/dL"}, {"measurement": "Activity", "setting": "[16]", "value": 115.22, "unit": "mg/dL"}, {"measurement": "Activity", "setting": "[17]", "value": 111.56, "unit": "mg/dL"}, {"measurement": "Activity", "setting": "[18]", "value": 103.57, "unit": "mg/dL"}, {"measurement": "Activity", "setting": "[19]", "value": 101.87, "unit": "mg/dL"}, {"measurement": "Activity", "setting": "[20]", "value": 188, "unit": "mg/dL"}, {"measurement": "Activity", "setting": "[21]", "value": 167, "unit": "mg/dL"}, {"measurement": "Activity", "setting": "[22]", "value": 134, "unit": "mg/dL"}, {"measurement": "Activity", "setting": "[23]", "value": 117, "unit": "mg/dL"}, {"measurement": "Activity", "setting": "[24]", "value": 46.32, "unit": "mg/dL"}, {"measurement": "Activity", "setting": "[25]", "value": 135.67, "unit": "mg/dL"}, {"measurement": "Activity", "setting": "[26]", "value": 137.34, "unit": "mg/dL"}, {"measurement": "Activity", "setting": "[27]", "value": 54.1, "unit": "mg/dL"}, {"measurement": "Activity", "setting": "[28]", "value": 118.76, "unit": "mg/dL"}, {"measurement": "Activity", "setting": "[29]", "value": "Active"}, {"measurement": "Activity", "setting": "[30]", "value": "Active"}, {"measurement": "Activity", "setting": "[31]", "value": "Active"}, {"measurement": "Activity", "setting": "[32]", "value": "Active"}, {"measurement": "Activity", "setting": "[33]", "value": "Active"}, {"measurement": "Activity", "setting": "[34]", "value": "Active"}]}]}
